The target in the test is T1, human GPR119 (Homo sapiens, UniProt Q8TDV5).
T1 construct: expressed in transfected cells; host or cells: HEK293
T1 sequence (Q8TDV5 1-335): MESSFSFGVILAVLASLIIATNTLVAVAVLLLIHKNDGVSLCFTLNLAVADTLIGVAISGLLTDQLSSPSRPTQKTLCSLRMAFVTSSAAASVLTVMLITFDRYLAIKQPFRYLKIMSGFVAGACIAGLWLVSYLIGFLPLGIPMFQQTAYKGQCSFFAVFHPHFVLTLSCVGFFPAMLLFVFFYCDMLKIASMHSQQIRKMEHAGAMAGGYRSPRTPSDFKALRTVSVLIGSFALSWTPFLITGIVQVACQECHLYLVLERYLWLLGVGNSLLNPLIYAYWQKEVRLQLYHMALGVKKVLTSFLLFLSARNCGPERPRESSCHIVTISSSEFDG
Put plainly: cAMP assay (LANCE cAMP kit), activation of GPR119. The class given is cell-based. Particulars: HEK293 cells expressing human GPR119; increase in cAMP levels. Here is the method:
The ability of illustrative compounds of the invention to activate GPR119 and stimulate increases in cAMP levels was determined using the LANCE™ cAMP kit (Perkin Elmer). HEK293 cells expressing human GPR119 were maintained in culture flasks at 37° C./5% CO2 in DMEM containing 10% fetal bovine serum, 100 U/ml Pen/Strep, and 0.5 mg/ml geneticin. The media was changed to Optimem and cells were incubated overnight at 37° C./5% CO2. The Optimem was then aspirated and the cells were removed from the flasks using room temperature Hank's balanced saline solution (HBSS). The cells were pelleted using centrifugation (1300 rpm, 7 minutes, room temperature), then resuspended in stimulation buffer (HBSS, 0.1% BSA, 5 mM HEPES, 15 μM RO-20) at 2.5×10^6 cells/mL. Alexa Fluor 647-anti cAMP antibody (1:100) was then added to the cell suspension and incubated for 30 minutes. A representative Fused Bicyclic Pyrimidine Derivative (6 μl at 2× concentration) in stimulation buffer containing 2% DMSO were then added to white 384 well Matrix plates. Cell suspension mix (6 μl) was added to each well and incubated with the Fused Bicyclic Pyrimidine Derivative for 30 minutes. A cAMP standard curve was also created in each assay according to the kit protocol. Standard concentrations of cAMP in stimulation buffer (6 μl) were added to white 384 well plates. Subsequently, 6 μl of 1:100 anti-cAMP antibody was added to each well. Following the 30 minute incubation period, 12 μl of detection mix (included in kit) was added to all wells and incubated for 2-3 hours at room temperature. Fluorescence was detected on the plates using an Envision instrument. The level of cAMP in each well is determined by extrapolation from the cAMP standard curve.
A general note: Changes in cAMP serve as a functional read-out for many G protein-coupled receptors.

Consider `CC(C)(C)OC(=O)N1CC2COCC(C1)C2Oc1ncnc2c1ccn2-c1ccc(S(C)(=O)=O)cc1F` (stereo not drawn) [Compound 26], for which the EC50 – broadly, the concentration at which the effect is half-maximal – fell in the range of 100 to 500 nM.

Molecule `CC1(OC(=O)N2CC3COCC(C2)C3Oc2ncnc3c2cnn3-c2ccc(-c3cscn3)cc2F)CC1` (stereo not drawn) [Compound 50] yielded an EC50 of 100 to 500 nM.

As for `CC(C)(C)OC(=O)N1CC2COCC(C1)C2Oc1ncnc2c1ccn2-c1c(F)cccc1F` (stereo not drawn) [Compound 14], the concentration giving a half-maximal response (EC50) is under 50 nM.

On to `CS(=O)(=O)c1ccc(-n2cnc3c(OC4C5COCC4CN(c4ncc(Cl)cn4)C5)ncnc32)c(F)c1` (stereo not drawn) [Compound 34], for which the EC50 was 500 to 1000 nM.

In turn, `CC1(OC(=O)N2CC3COCC(C2)C3Oc2ncnc3c2ccn3-c2ccc(C#N)cc2F)CC1` (stereo not drawn) [Compound 5] showed a concentration giving a half-maximal response (EC50) of under 50 nM.

As to `CC1OC(C)C2CN(C(=O)OC3(C)CC3)CC1C2Oc1ncnc2c1cnn2-c1ccc(C#N)cc1F` (stereo not drawn) [Compound 39], the EC50 lay in the range of 100 to 500 nM.

For `CC(C)c1noc(N2CC3COCC(C2)C3Oc2ncnc3c2ccn3-c2ccc(F)cc2F)n1` (stereo not drawn) [Compound 29], the EC50 was 100 to 500 nM.

In the case of `CC(C)(C)OC(=O)N1CC2COCC(C1)C2Oc1ncnc2c1ccn2-c1ccc(F)cc1F` (stereo not drawn) [Compound 7], the EC50 was under 50 nM.

The molecule `Cc1c(F)ccc(-n2ccc3c(OC4C5COCC4CN(C(=O)OC(C)(C)C)C5)ncnc32)c1C#N` (stereo not drawn) [Compound 21] had an EC50 of 50 to 100 nM.

Molecule `CS(=O)(=O)c1ccc(-n2ccc3c(OC4C5COCC4CN(c4ncc(Cl)cn4)C5)ncnc32)c(F)c1` (stereo not drawn) [Compound 27] displayed a half-maximal effective concentration (EC50) of under 50 nM.

Regarding `Cc1cccc(-n2ccc3c(OC4C5COCC4CN(C(=O)OC4(C)CC4)C5)ncnc32)c1C#N` (stereo not drawn) [Compound 24], the EC50 lay in the range of 50 to 100 nM.

Regarding `Cn1cc(-c2ccc(-n3ncc4c(OC5C6COCC5CN(C(=O)OC5(C)CC5)C6)ncnc43)c(F)c2)cn1` (stereo not drawn) [Compound 48], the EC50 is 100 to 500 nM.

Take `CC(C)(C)OC(=O)N1CC2COCC(C1)C2Oc1ncnc2c1OCCN2c1ccc(C#N)cc1F` (stereo not drawn) [Compound 53]: the EC50 was in the range of 100 to 500 nM.

Regarding `CC1OC(C)C2CN(C(=O)OC3(C)CC3)CC1C2Oc1ncnc2c1cnn2-c1ccc(C#N)cc1F` (stereo not drawn) [Compound 38], the EC50 was under 50 nM.

Molecule `CC(C)(C)OC(=O)N1CC2COCC(C1)C2Oc1ncnc2c1ccn2-c1c(F)cc(F)cc1F` (stereo not drawn) [Compound 32] displayed an EC50 of under 50 nM.

The molecule `CC(C)(C)OC(=O)N1CC2COCC(C1)C2Oc1ncnc2c1CCN2c1ccc(F)cc1F` (stereo not drawn) [Compound 10] displayed an EC50 of 100 to 500 nM.

On to `CC1(OC(=O)N2CC3COCC(C2)C3Oc2ncnc3c2cnn3-c2ccc(-c3ncco3)cc2F)CC1` (stereo not drawn) [Compound 49], for which the 50% effective concentration (EC50) was in the range of 100 to 500 nM.

`CC(C)OC(=O)N1CC2COCC(C1)C2Oc1ncnc2c1OCCN2c1ccc(C#N)cc1F` (stereo not drawn) [Compound 55] registered an EC50 of 100 to 500 nM.

As to `CC1(OC(=O)N2CC3COCC(C2)C3Oc2ncnc3c2cnn3-c2ccc(C#N)cc2Cl)CC1` (stereo not drawn) [Compound 40], the EC50 is under 50 nM.

Consider `CC(C)(C)OC(=O)N1CC2COCC(C1)C2Oc1ncnc2c1CCN2c1ccc(F)cc1F` (stereo not drawn) [Compound 9], for which the EC50 is under 50 nM.

In turn, `CC1(OC(=O)N2CC3COCC(C2)C3Oc2ncnc3c2ncn3-c2ccc(C#N)cc2Cl)CC1` (stereo not drawn) [Compound 43] had an EC50 of 100 to 500 nM.

The molecule `CS(=O)(=O)c1ccc(-n2ccc3c(OC4C5COCC4CN(c4ncc(F)cn4)C5)ncnc32)c(F)c1` (stereo not drawn) [Compound 30] had an EC50 of 50 to 100 nM.

Molecule `CCCOC(=O)N1CC2COCC(C1)C2Oc1ncnc2c1ccn2-c1ccc(C#N)cc1F` (stereo not drawn) [Compound 4] displayed an EC50 of under 50 nM.

For `CC1(OC(=O)N2CC3COCC(C2)C3Oc2ncnc3c2ncn3-c2ccc(C#N)cc2F)CC1` (stereo not drawn) [Compound 35], the EC50 lay in the range of 50 to 100 nM.

In turn, `Fc1ccc(N2CCc3c(OC4C5COCC4CN(c4ncc(Cl)cn4)C5)ncnc32)c(F)c1` (stereo not drawn) [Compound 13] returned an EC50 of 100 to 500 nM.

`CC(C)(C)OC(=O)N1CC2COCC(C1)C2Oc1ncnc2c1nnn2-c1ccc(C#N)cc1Cl` (stereo not drawn) [Compound 51] yielded an EC50 of 100 to 500 nM.

As for `CC(C)(C)OC(=O)N1CC2COCC(C1)C2Oc1ncnc2c1ccn2-c1ccc(F)cc1F` (stereo not drawn) [Compound 6], the EC50 was under 50 nM.

Consider `CC(C)(C)OC(=O)N1CC2COCC(C1)C2Oc1ncnc2c1ccn2-c1c(F)cc(F)cc1F` (stereo not drawn) [Compound 33], for which the EC50 is under 50 nM.

On to `CC1(OC(=O)N2CC3COCC(C2)C3Oc2ncnc3c2ccn3-c2ccc(S(C)(=O)=O)cc2F)CC1` (stereo not drawn) [Compound 28], for which the EC50 was in the range of 100 to 500 nM.

The molecule `CC1(OC(=O)N2CC3COCC(C2)C3Oc2ncnc3c2cnn3-c2ccc(C#N)cc2F)CC1` (stereo not drawn) [Compound 37] registered an EC50 of under 50 nM.

The molecule `Cc1nc2c(OC3C4COCC3CN(C(=O)OC3(C)CC3)C4)ncnc2n1-c1ccc(C#N)cc1F` (stereo not drawn) [Compound 42] yielded an EC50 of 500 to 1000 nM.

The molecule `Cc1c(F)ccc(-n2ccc3c(OC4C5COCC4CN(C(=O)OC4(C)CC4)C5)ncnc32)c1F` (stereo not drawn) [Compound 18] had an EC50 of under 50 nM.

Consider `CC1(OC(=O)N2CC3COCC(C2)C3Oc2ncnc3c2nnn3-c2ccc(C#N)cc2Cl)CC1` (stereo not drawn) [Compound 52], for which the EC50 was 50 to 100 nM.

In turn, `CC1(OC(=O)N2CC3COCC(C2)C3Oc2ncnc3c2[nH]c(=O)n3-c2ccc(C#N)cc2F)CC1` (stereo not drawn) [Compound 41] displayed an EC50 of 500 to 1000 nM.

Consider `CC(C)(C)OC(=O)N1CC2COCC(C1)C2Oc1ncnc2c1ccn2-c1ccc(C#N)cc1F` (stereo not drawn) [Compound 2], for which the EC50 was under 50 nM.

Turning to `CC(C)OC(=O)N1CC2COCC(C1)C2Oc1ncnc2c1ncn2-c1ccc(C#N)cc1Cl` (stereo not drawn) [Compound 44], the EC50 fell in the range of 100 to 500 nM.

Consider `Fc1cnc(N2CC3COCC(C2)C3Oc2ncnc3c2ccn3-c2ccc(F)cc2F)nc1` (stereo not drawn) [Compound 12], for which the EC50 was in the range of 50 to 100 nM.

Regarding `CC1(OC(=O)N2CC3COCC(C2)C3Oc2ncnc3c2cnn3-c2ccc(C#N)cc2F)CC1` (stereo not drawn) [Compound 36], the EC50 was under 50 nM.

`CC1(OC(=O)N2CC3COCC(C2)C3Oc2ncnc3c2ccn3-c2ccc(F)cc2F)CC1` (stereo not drawn) [Compound 8] gave an EC50 of under 50 nM.

Molecule `CC1(OC(=O)N2CC3COCC(C2)C3Oc2ncnc3c2OCCN3c2ccc(C#N)cc2F)CC1` (stereo not drawn) [Compound 54] gave an EC50 of 100 to 500 nM.

`Cc1c(F)ccc(-n2ccc3c(OC4C5COCC4CN(C(=O)OC(C)(C)C)C5)ncnc32)c1F` (stereo not drawn) [Compound 16] registered an EC50 of under 50 nM.

Molecule `CC(C)OC(=O)N1CC2COCC(C1)C2Oc1ncnc2c1ccn2-c1ccc(C#N)cc1F` (stereo not drawn) [Compound 3] returned an EC50 of under 50 nM.

With `CC(C)(C)OC(=O)N1CC2COCC(C1)C2Oc1ncnc2c1ccn2-c1ccc(S(C)(=O)=O)cc1F` (stereo not drawn) [Compound 25], the EC50 fell in the range of 100 to 500 nM.

The molecule `Cc1c(F)ccc(-n2ccc3c(OC4C5COCC4CN(C(=O)OC(C)(C)C)C5)ncnc32)c1C#N` (stereo not drawn) [Compound 20] displayed an EC50 of 100 to 500 nM.

Turning to `CC1(OC(=O)N2CC3COCC(C2)C3Oc2ncnc3c2ccn3-c2c(F)cccc2F)CC1` (stereo not drawn) [Compound 19], the EC50 was under 50 nM.

`Cc1c(F)ccc(-n2ccc3c(OC4C5COCC4CN(C(=O)OC(C)(C)C)C5)ncnc32)c1F` (stereo not drawn) [Compound 17] registered an EC50 of 50 to 100 nM.

The molecule `Cc1cccc(-n2ccc3c(OC4C5COCC4CN(C(=O)OC(C)(C)C)C5)ncnc32)c1C#N` (stereo not drawn) [Compound 23] displayed an EC50 of 50 to 100 nM.

`CC1(OC(=O)N2CC3COCC(C2)C3Oc2ncnc3c2CCN3c2ccc(F)cc2F)CC1` (stereo not drawn) [Compound 11] displayed an EC50 of under 50 nM.

The molecule `CCCc1cnc(N2CC3COCC(C2)C3Oc2ncnc3c2ccn3-c2ccc(S(C)(=O)=O)cc2F)nc1` (stereo not drawn) [Compound 31] showed an EC50 of 50 to 100 nM.

With `CC1(OC(=O)N2CC3COCC(C2)C3Oc2ncnc3c2cnn3-c2ccc(F)cc2F)CC1` (stereo not drawn) [Compound 46], the EC50 was 100 to 500 nM.

The molecule `CC1(OC(=O)N2CC3COCC(C2)C3Oc2ncnc3c2ncn3-c2ccc(Br)cc2F)CC1` (stereo not drawn) [Compound 47] came in with an EC50 of 100 to 500 nM.

Regarding `CC1(OC(=O)N2CC3COCC(C2)C3Oc2ncnc3c2cnn3-c2ccc(F)cc2F)CC1` (stereo not drawn) [Compound 45], the EC50 fell in the range of 100 to 500 nM.

Molecule `CC(C)(C)OC(=O)N1CC2COCC(C1)C2Oc1ncnc2c1ccn2-c1ccc(C#N)cc1F` (stereo not drawn) [Compound 1] displayed a half-maximal effective concentration (EC50) of under 50 nM.

On to `Cc1c(F)ccc(-n2ccc3c(OC4C5COCC4CN(C(=O)OC4(C)CC4)C5)ncnc32)c1C#N` (stereo not drawn) [Compound 22], for which the EC50 lay in the range of 50 to 100 nM.

The record behind these values is patent US20120232073A1, “FUSED BICYCLIC PYRIMIDINE DERIVATIVES AND METHODS OF USE THEREOF” (priority 2009, published 2012).
